Data on two compounds can be found in paper PMC9596378, “Discovery and molecular basis of subtype-selective cyclophilin inhibitors” (Nature Chemical Biology, 2022).

The target of one experiment is T1, CypD K118E/R124A (Homo sapiens, UniProt P30405, K118E/R124A).
T1 construct: made in house; host or cells: E. coli BL21(DE3)
Description: Chymotrypsin coupled prolyl-isomerase assay. It counts as biochemical. In short, it runs like this:
(§1)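 Recombinant cyclophilin (5 nM final) in 25 mM HEPES pH 7.3, 100 mM NaCl, 0.01% Triton X-100 was preincubated with compound at 2–3 °C. It was then coupled with 25 µM α-chymotrypsin and 5 µM Suc-AAPF-AMC (LiCl/TFE), and AMC fluorescence was followed for 330 s.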

Experiment [1] has as its target T2, CypE K218A (Homo sapiens, UniProt Q9UNP9, K218A).
T2 construct: Lane 6- GS-CypE K218A (131-301);; His6 tag with thrombin site (pET28a LIC); GS remnant stays on the N-terminus (N, cleaved yes); host or cells: E. coli BL21(DE3)
Description: Chymotrypsin coupled prolyl-isomerase assay. It counts as biochemical. In short, it runs like this: as §1

Experiment [2] has as its target T3, CypE K217A (Homo sapiens, UniProt Q9UNP9, K217A).
T3 construct: Lane 5- GS-CypE K217A (131-301);; His6 tag with thrombin site (pET28a LIC); GS remnant stays on the N-terminus (N, cleaved yes); host or cells: E. coli BL21(DE3)
The experiment in a line: Chymotrypsin coupled prolyl-isomerase assay. In kind it is biochemical. An outline of the steps:
as §1

The target of experiment [3] is T4, CypE K212A (Homo sapiens, UniProt Q9UNP9, K212A).
T4 construct: Lane 4- GS-CypE K212A (131-301);; His6 tag with thrombin site (pET28a LIC); GS remnant stays on the N-terminus (N, cleaved yes); host or cells: E. coli BL21(DE3)
Description: Chymotrypsin coupled prolyl-isomerase assay. It counts as biochemical. Particulars: mutant CypE K212A; read-out: Mutant Cyclophilin Prolyl Isomerase Inhibition IC50 Values, CypE K212A. An outline of the steps: as §1

Another experiment addresses T5, PPIL1 (Homo sapiens, UniProt Q9Y3C6).
T5 construct: PPIL1 (UniProtKB Entry Q9Y3C6: residues 1–166); made in house; host or cells: E. coli BL21(DE3)
T5 sequence (Q9Y3C6 1-166): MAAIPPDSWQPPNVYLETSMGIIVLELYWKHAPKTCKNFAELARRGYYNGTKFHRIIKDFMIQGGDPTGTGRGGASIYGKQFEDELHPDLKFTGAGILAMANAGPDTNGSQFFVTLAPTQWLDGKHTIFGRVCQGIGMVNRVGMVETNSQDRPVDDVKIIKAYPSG
Description: Competition anisotropy binding assay with A26-Fl. The conditions noted are these: FP competition with 0.5 nM A26-Fl, 24 h. On the procedure:
(§2) Adapted from previous work[52], cyclophilin in assay buffer (25 mM HEPES pH 8.0, 100 mM NaCl, 0.01% Triton X-100) at a pre-determined concentration from Supplementary Table 6 was incubated with 0.5 nM A26-Fl for 10 min at room temperature in a flat-bottom black untreated 96-well plate (Corning). Competitor macrocycle was then added to each well and incubated for 24 h. Final assay volume was 100 µL with 0.25% DMSO. Fluorescence anisotropy was then measured using a Tecan Spark plate reader using 492 nm/523 nm excitation/emission settings.

In experiment [4] the target is T2, CypE K218A. Description: Competition anisotropy binding assay with A26-Fl. The conditions noted are these: FP competition with 0.5 nM A26-Fl, 24 h. As to the method: as §2
For a further experiment, the target named is T6, PPIL3 (Homo sapiens, UniProt Q9H2H8).
T6 construct: PPIL3 (UniProtKB Entry Q9H2H8: residues 1–161); His6 tag with TEV site (2BT vector); SNA remnant stays on the N-terminus (N, cleaved yes); made in house; host or cells: E. coli BL21(DE3)
The experiment in a line: Competition anisotropy binding assay with A26-Fl. The conditions noted are these: FP competition with 0.5 nM A26-Fl, 24 h. On the procedure:
as §2

Another experiment concerns the target T7, CypB (Homo sapiens, UniProt P23284).
T7 construct: PPIB (UniProtKB Entry P23284: residues 34–216); His6 with TEV site (2BT vector leader) (N); made in house; host or cells: E. coli BL21(DE3)
Description: Competition anisotropy binding assay with A26-Fl. Particulars: FP competition with 0.5 nM A26-Fl, 24 h. As to the method:
as §2

The target of a further experiment is T8, CypA (Homo sapiens, UniProt P62937).
T8 construct: PPIA (UniProtKB Entry P62937: residues 1–165); made in house; host or cells: E. coli BL21(DE3)
The experiment in a line: Competition anisotropy binding assay with A26-Fl. Particulars: FP competition with 0.5 nM A26-Fl, 24 h. On the procedure:
as §2

The target of experiment [5] is T3, CypE K217A. The experiment in a line: Competition anisotropy binding assay with A26-Fl. On the procedure:
as §2

The target in experiment [6] is T4, CypE K212A. The experiment in a line: Competition anisotropy binding assay with A26-Fl. Particulars: FP competition with 0.5 nM A26-Fl, 24 h. On the procedure:
as §2

Another experiment has as its target Cyp40 (Homo sapiens, UniProt Q08752). The experiment in a line: Competition anisotropy binding assay with A26-Fl. Particulars: FP competition with 0.5 nM A26-Fl, 24 h. On the set-up: PPID (UniProtKB Entry Q08752: residues 1–183); made in house; host or cells: E. coli BL21(DE3). As to the method: as §2

As usually defined, the IC50 is the point on the concentration scale where inhibition reaches its midpoint. For orientation: Ki means a measure of affinity in units of concentration, obtained from inhibition or displacement. The low end stands for higher affinity, the high end for lower affinity.

Structures are written as SMILES. Where two headings read alike, the source gives them in different places. Where only a bound is given, the exact number is not on record here.

T1 sequence (P30405 45-207 K118E/R124A): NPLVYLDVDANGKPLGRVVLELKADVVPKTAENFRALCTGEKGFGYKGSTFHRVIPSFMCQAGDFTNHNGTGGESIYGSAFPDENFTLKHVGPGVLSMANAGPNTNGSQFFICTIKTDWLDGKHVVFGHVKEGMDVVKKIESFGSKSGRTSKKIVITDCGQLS
T2 sequence (Q9UNP9 131-301 K218A): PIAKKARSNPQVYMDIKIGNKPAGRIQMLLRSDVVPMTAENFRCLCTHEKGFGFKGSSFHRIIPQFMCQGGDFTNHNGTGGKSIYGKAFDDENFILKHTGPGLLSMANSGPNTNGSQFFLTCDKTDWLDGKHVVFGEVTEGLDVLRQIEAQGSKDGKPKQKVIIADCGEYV
T3 sequence (Q9UNP9 131-301 K217A): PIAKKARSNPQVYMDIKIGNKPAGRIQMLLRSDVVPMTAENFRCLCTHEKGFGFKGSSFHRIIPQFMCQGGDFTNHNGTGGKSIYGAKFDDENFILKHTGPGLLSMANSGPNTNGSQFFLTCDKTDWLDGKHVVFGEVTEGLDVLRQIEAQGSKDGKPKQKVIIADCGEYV
T4 sequence (Q9UNP9 131-301 K212A): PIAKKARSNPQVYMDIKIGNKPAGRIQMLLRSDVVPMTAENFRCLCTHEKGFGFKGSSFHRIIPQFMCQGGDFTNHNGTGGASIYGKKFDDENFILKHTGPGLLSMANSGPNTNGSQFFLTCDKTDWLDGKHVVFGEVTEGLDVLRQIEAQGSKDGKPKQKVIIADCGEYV
T6 sequence (Q9H2H8 whole entry, the tested form may be a part): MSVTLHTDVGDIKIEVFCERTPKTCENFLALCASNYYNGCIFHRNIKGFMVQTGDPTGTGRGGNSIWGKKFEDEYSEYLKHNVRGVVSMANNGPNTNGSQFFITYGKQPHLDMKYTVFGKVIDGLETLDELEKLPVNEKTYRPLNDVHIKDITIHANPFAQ
T7 sequence (P23284 34-216): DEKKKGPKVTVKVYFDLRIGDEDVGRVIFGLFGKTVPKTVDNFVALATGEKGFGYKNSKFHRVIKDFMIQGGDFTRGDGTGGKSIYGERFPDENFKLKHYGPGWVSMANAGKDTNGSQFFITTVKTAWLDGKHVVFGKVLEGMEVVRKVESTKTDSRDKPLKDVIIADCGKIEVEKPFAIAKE
T8 sequence (P62937 whole entry, the tested form may be a part): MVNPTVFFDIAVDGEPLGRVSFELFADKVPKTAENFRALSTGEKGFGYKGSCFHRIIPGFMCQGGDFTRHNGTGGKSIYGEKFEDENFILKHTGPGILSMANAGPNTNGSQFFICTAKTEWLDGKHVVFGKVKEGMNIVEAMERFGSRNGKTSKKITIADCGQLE
Cyp40, sequence (Q08752 1-183): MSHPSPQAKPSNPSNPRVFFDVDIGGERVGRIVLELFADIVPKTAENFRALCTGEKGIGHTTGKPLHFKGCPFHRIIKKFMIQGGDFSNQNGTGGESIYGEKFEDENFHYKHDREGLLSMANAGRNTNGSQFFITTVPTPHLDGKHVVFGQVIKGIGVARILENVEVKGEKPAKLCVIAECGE

Regarding `NCCCc1ccc(-c2ccc(C[C@@H]3NC(=O)[C@]4(Cc5ccccc5)CCCN(C4)C(=O)/C=C/C(=O)NCC[C@@H](C(=O)NCCOCCN)NC(=O)Cc4ccccc4CNC3=O)cc2)cc1` [Compound B32], the “potency improvement on CypD K118E/R124A compared to wild-type CypD” value on CypD K118E/R124A turned out to be 100 fold. On CypD K118E/R124A (prolyl-isomerase IC50), the “preference for CypD K118E/R124A over PPWD1” value was “at least 13 fold” and the “selectivity for CypD K118E/R124A over CypA” value is > 100 fold. Besides, it took 60 nM to reach half-maximal inhibition at CypD K118E/R124A (prolyl-isomerase inhibition) (IC50).

In the case of `NC(=O)C1CCNC(=O)C=CC(=O)N2CCCC(Cc3ccccc3)(C2)C(=O)NC(Cc2ccc(-c3ccc(C=O)c(B(O)O)c3)cc2)C(=O)NCc2ccccc2CC(=O)N1` (centres unmarked) [Compound C3A], the IC50 at CypE K218A [1] (mutant CypE K218A, read-out: Mutant Cyclophilin Prolyl Isomerase Inhibition IC50 Values, CypE K218A) was 2000 nM; at CypE K218A [1] (prolyl-isomerase inhibition, read-out: IC50 CypE K218A) it was 19 ± 3 nM; at CypE K217A [2] (mutant CypE K217A, read-out: Mutant Cyclophilin Prolyl Isomerase Inhibition IC50 Values, CypE K217A) it was 19 nM; at CypE K212A [3], 30 nM. The “less potent at inhibiting K217A prolyl-isomerase activity compared to wild-type CypE” value at CypE K217A [2] came out at 150 fold. For the same compound, the Ki at PPIL1 is 1100 nM; at CypE K218A [4], 250 nM; on PPIL3, > 10000 nM; on CypB it was 5600 nM; at CypA it was 1800 nM; on CypE K212A [6], 98 nM. At Cyp40, the Ki is > 10000 nM. In addition, on CypE K217A [5], the “less potent at competing A26-Fl from CypE K217A compared to wild-type CypE” value was 40 fold.
